Consider one compound from PMC11375702, “Early Preclinical Studies of Ergosterol Peroxide and Biological Evaluation of Its Derivatives” (ACS Omega, 2024).

Data set [1] has as its target T1, CYP3A4 (Homo sapiens, UniProt P08684).
T1 construct: from tissue; host or cells: pooled human liver microsomes
In words: Microsomal CYP inhibition assay, CYP3A4. The data set is classed as in vitro ADME. The following applies: pooled human liver microsomes. As for the experimental part: (§1) To assess potential cardiotoxicity, we performed the human ether-go-go-related gene (hERG) inhibition assay. […] Briefly, EP was tested at six concentrations (cumulative concentration–response). […] For hepatotoxicity determination, we performed the microsomal CYP inhibition assay. Briefly, EP was incubated at seven increasing concentrations with pooled human liver microsomes. […] The supernatants were analyzed by LC-MS/MS.
A general note: Liver microsomes are a subcellular fraction often used to study metabolism.

Data set [2] concerns the target T2, CYP2C9 (Homo sapiens, UniProt P11712).
T2 construct: from tissue; host or cells: pooled human liver microsomes
In words: Microsomal CYP inhibition assay, CYP2C9. In kind it is in vitro ADME. As for the experimental part: as §1

Data set [3] deals with CYP2D6 (Homo sapiens, UniProt P10635). Nature of the data set: Microsomal CYP inhibition assay, CYP2D6. In kind it is in vitro ADME. Particulars: pooled human liver microsomes, probe dextromethorphan. As for the experimental part:
as §1

Data set [4] addresses T3, CYP1A2 (Homo sapiens, UniProt P05177).
T3 construct: from tissue; host or cells: pooled human liver microsomes
T3 sequence (P05177 1-516): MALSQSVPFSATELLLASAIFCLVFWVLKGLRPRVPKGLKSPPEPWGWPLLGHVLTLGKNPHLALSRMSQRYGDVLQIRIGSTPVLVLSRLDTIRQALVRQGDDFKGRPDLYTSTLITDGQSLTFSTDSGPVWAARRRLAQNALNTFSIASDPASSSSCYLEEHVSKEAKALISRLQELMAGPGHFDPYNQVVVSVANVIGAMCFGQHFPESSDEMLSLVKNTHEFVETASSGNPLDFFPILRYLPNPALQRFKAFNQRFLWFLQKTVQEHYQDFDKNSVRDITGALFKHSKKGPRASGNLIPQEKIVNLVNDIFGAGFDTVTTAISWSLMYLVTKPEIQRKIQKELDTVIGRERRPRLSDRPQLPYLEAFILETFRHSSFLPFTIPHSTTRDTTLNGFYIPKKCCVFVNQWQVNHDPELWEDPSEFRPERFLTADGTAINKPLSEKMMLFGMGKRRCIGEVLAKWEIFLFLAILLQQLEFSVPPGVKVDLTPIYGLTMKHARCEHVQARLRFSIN
Nature of the data set: Microsomal CYP inhibition assay, CYP1A2. The data set is classed as in vitro ADME. Particulars: pooled human liver microsomes, probe tacrine. As for the experimental part:
as §1

The target of data set [5] is T4, CYP2C8 (Homo sapiens, UniProt P10632).
T4 sequence (P10632 1-490): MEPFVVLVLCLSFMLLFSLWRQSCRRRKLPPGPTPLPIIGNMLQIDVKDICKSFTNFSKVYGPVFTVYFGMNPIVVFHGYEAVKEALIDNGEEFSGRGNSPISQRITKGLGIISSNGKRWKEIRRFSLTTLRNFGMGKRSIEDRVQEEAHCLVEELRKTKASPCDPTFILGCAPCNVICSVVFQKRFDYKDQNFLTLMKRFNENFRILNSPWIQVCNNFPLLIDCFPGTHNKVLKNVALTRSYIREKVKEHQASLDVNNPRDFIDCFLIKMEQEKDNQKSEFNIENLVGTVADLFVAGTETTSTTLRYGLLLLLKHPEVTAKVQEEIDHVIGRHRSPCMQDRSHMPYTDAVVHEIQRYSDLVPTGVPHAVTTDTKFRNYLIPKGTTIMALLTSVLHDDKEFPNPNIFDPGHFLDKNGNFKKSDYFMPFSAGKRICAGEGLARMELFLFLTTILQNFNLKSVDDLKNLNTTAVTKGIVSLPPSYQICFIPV
In words: Microsomal CYP inhibition assay, CYP2C8. The data set is classed as in vitro ADME. The following applies: pooled human liver microsomes, probe amodiaquine. As for the experimental part: as §1

The target in data set [6] is T5, CYP2B6 (Homo sapiens, UniProt P20813).
T5 construct: from tissue; host or cells: pooled human liver microsomes
T5 sequence (P20813 1-491): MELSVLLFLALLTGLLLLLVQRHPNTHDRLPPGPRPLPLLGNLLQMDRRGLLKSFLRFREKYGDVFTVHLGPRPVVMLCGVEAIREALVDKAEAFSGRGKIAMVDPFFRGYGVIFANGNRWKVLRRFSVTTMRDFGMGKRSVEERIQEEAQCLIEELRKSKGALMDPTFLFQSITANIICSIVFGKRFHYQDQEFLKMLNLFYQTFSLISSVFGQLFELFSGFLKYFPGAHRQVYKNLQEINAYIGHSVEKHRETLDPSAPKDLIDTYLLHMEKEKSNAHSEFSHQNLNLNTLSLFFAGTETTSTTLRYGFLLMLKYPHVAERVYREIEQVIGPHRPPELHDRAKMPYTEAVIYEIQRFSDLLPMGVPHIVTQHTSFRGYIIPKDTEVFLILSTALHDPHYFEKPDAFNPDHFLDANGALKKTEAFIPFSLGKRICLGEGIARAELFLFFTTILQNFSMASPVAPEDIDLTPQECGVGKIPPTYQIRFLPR
Nature of the data set: Microsomal CYP inhibition assay, CYP2B6. The data set is classed as in vitro ADME. Particulars: pooled human liver microsomes, probe bupropion. As for the experimental part: as §1

For data set [7], the system named is MDA-MB-231-GFP mammary fat pad tumors. In words: In vivo efficacy, MDA-MB-231-GFP mammary fat pad tumors. The arrangement: species or system mouse. The following applies: 100 mg/kg BW i.p. 3 times per week. As for the experimental part:
Finally, to test the effect of EP on breast cancer progression in vivo, we established mammary fat pad tumors from GFP-tagged TNBC MDA-MB-231 cancer cells as we have previously described.[47] Mice were injected with TNBC cells diluted in Matrigel in their fourth mammary fat pad, and when tumors were palpable, the mice were injected via intraperitoneal (i.p.) 3 times per week with vehicle (10% ethanol) or 100 mg/kg BW of EP. […] The progression of the tumor was quantified by fluorescence image analysis obtained on a weekly basis.
Female (3-week-old) severe combined immunodeficient (SCID) Hairless Outbred (SHO) mice (Charles River Laboratories, Wilmington, MA) were segregated into two groups (n = 3 mice/group) and housed under specific pathogen-free conditions. The mice received an autoclaved AIN 76-A phytoestrogen-free diet (Tek Global, Harlan Teklad, Madison, WI) and water ad libitum. Cell inoculations were performed under isoflurane inhalation as we previously described[47] to produce orthotopic tumors as described in the provided reference.[54] […] GFP-tagged cells were monitored weekly for the duration of the study using an iBox Explorer^2 (UVP, CA) animal imaging system. […] Tumor fluorescence intensities were analyzed using ImageJ software (National Institutes of Health, Bethesda, MD). […]

The nature of data set [8]: Plasma stability assay (human).

Read-outs that look alike come from different tables or passages of the source.

T1 sequence (P08684 whole entry): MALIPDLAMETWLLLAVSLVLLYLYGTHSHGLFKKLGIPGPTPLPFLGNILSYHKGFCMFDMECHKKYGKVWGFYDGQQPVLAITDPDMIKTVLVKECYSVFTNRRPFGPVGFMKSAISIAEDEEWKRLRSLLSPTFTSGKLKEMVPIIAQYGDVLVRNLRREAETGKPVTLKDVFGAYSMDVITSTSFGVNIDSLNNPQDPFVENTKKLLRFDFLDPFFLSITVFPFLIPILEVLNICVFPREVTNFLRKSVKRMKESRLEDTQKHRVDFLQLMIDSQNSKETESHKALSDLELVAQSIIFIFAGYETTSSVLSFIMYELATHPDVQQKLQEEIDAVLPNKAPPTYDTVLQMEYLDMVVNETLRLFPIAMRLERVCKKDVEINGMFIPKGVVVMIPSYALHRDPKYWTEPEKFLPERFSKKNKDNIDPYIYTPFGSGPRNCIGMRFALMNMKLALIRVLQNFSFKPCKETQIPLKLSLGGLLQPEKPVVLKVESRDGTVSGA
T2 sequence (P11712 whole entry): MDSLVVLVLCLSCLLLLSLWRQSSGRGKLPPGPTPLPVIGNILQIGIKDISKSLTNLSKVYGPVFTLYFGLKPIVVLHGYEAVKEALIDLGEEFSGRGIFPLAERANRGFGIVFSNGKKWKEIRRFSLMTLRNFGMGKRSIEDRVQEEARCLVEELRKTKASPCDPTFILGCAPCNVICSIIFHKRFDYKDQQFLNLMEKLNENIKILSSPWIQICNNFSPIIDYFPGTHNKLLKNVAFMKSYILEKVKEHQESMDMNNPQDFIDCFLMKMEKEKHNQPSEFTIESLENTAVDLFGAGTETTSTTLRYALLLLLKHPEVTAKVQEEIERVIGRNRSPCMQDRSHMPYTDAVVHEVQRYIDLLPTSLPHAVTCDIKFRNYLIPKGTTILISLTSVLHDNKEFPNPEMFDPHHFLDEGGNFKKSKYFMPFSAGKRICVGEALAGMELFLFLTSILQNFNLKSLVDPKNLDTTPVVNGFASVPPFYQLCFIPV
Sequence of CYP2D6 (P10635 whole entry): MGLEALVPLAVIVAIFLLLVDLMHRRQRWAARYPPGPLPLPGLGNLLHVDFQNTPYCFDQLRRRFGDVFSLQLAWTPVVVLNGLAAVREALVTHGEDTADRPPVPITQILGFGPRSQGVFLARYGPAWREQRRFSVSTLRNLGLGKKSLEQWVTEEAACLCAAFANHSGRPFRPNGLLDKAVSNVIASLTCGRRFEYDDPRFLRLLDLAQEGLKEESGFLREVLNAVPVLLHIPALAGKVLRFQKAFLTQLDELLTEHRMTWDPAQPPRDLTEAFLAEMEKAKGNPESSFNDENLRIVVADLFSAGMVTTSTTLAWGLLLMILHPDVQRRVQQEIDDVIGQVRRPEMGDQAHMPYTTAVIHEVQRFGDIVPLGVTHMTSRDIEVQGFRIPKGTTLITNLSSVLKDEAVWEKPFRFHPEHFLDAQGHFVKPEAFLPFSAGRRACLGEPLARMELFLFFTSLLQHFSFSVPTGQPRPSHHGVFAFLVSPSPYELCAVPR

What is called half-life is how long it takes for the measured level to halve. A low value points to fast loss. For the compound `CC(C)[C@@H](C)/C=C/[C@@H](C)[C@H]1CC[C@@H]2[C@]1(C)CC[C@H]1[C@]23C=C[C@]2(C[C@@H](O)CC[C@]12C)OO3` [Compound 2, Ergosterol peroxide], the IC50 in data set [1] (probe midazolam, read-out: CYP3A4-Midazolam inhibition) was greater than 25 µM; in data set [1] (probe testosterone, read-out: CYP3A4-Testos-terone inhibition) it was greater than 25 µM; in data set [2], greater than 25 µM; in data set [3], greater than 25 µM; in data set [4], 16.3 µM; in data set [5], 9.9 µM. The same compound registered an IC50 in data set [6] greater than 25 µM. For the same compound, in data set [7] (by week 3, P < 0.05), the tumor growth result was “decreases tumor growth”. In addition, in data set [7] (end of study, vs vehicle), the tumor size reduction is recorded as roughly 17%. Further, the half-life in data set [8] was greater than 48 h.
